From patent US9915647B2 (priority 2011, dated 2018)

Test system: INS1E cells
Type: cell-based, rat

Row | Structure (SMILES) | digitonin concentration giving maximal and sustained ADP-stimulated respiration | portion of ADP stimulated respiration that is oligomycin sensitive
1 | C[C@@H]1CC[C@@]2(OC1)O[C@H]1[C@@H](O)[C@H]3[C@@H]4CC[C@H]5C[C@@H](O[C@@H]6O[C@H](CO)[C@H](O[C@@H]7O[C@H](CO)[C@@H](O)[C@H](O[C@@H]8OC[C@@H](O)[C@H](O)[C@H]8O)[C@H]7O[C@@H]7O[C@H](CO)[C@H](O)[C@H](O[C@@H]8O[C@H](CO)[C@@H](O)[C@H](O)[C@H]8O)[C@H]7O)[C@H](O)[C@H]6O)[C@H](O)C[C@]5(C)[C@H]4CC[C@]3(C)[C@H]1[C@@H]2C [digitonin] | 0.01% | 
2 | CC[C@H]1/C=C/C=C/C[C@@H](C)[C@H](O)[C@@](C)(O)C(=O)[C@@H](C)[C@H](O)[C@@H](C)C(=O)[C@@H](C)[C@H](O)[C@@H](C)/C=C/C(=O)O[C@@H]2[C@H](C)[C@H](CC1)O[C@]1(CC[C@H](C)[C@H](C[C@@H](C)O)O1)[C@H]2C [oligomycin] |  | ~75%
